From paper PMC7255010, “Small-molecule activating SIRT6 elicits therapeutic effects and synergistically promotes anti-tumor activity of vitamin D3 in colorectal cancer” (Theranostics, 2020)

Experiments:
[1] = Pharmacokinetic studies in mice; format: in vivo; details: male, mouse, plasma, C57BL/6J mice
Experimental: Pharmacokinetic studies were performed by Shanghai Medicilon Inc, China, following standard protocols. Briefly, six-week-old male C57BL/6J mice were grouped randomly (n = 5 per group). […] Two administration formulations were prepared in the vehicle with 5% DMSO, 10% Solutol and 85% saline, with the pH adjusted to 7.0-8.0. After treatment, the mice were sacrificed, and their plasma samples were collected at 5 min, 15 min, 30 min, 1 h, 2 h, 4 h, 8 h, and 24 h. The drug concentration in plasma was analyzed by LC-MS/MS. Pharmacokinetic parameters were calculated using Analyst Software 1.6.3 from mean plasma concentration-time profiles. The area under the curve (AUC) was measured from time versus concentration data by the linear trapezoidal rule. […] The calculation was normalized to relative doses.

HCT116 = test: Cell cycle analysis (PI staining, flow cytometry); format: cell-based, human; details: for cell cycle phase distribution, G2/M: 48 h (0 µM: 20.4 ± 4.5); for cell cycle phase distribution, S: 48 h (0 µM: 30.1 ± 4.4); for cell cycle phase distribution, G0/G1: 48 h (0 µM: 49.5 ± 3.5)
Experimental: (§1) Then, cells were collected and fixed with 75% ethanol at 4 °C overnight. The cells were incubated with RNase I (50 μg/mL) in 1× PBS at 37 °C for 30 min and stained with propidium iodide (50 μg/mL) for 15 min. The cells were analyzed by flow cytometry and FACS DIVA software, v6.2 (BD Biosciences). The cell cycle distribution was analyzed using FlowJo 7.6.1 software. The data are presented as the mean ± s.d. of three independent experiments.

HT29 = test: Cell cycle analysis (PI staining, flow cytometry); format: cell-based, human; details: for cell cycle phase distribution, G2/M: 48 h (0 µM: 22.6 ± 6.7); for cell cycle phase distribution, S: 48 h (0 µM: 36.9 ± 4.6); for cell cycle phase distribution, G0/G1: 48 h (0 µM: 40.5 ± 2.6)
Experimental: as §1

SW480 = test: Cell cycle analysis (PI staining, flow cytometry); format: cell-based, human; details: for cell cycle phase distribution, G2/M: 48 h (0 µM: 13.9 ± 1.8); for cell cycle phase distribution, S: 48 h (0 µM: 38.3 ± 3.6); for cell cycle phase distribution, G0/G1: 48 h (0 µM: 47.7 ± 1.3)
Experimental: as §1

[2] = system: CRC cell lines (HCT116, HT29, SW480); test: LDH assay of cytotoxicity in CRC cell lines; format: cell-based; details: 48 h, pharmacological concentrations
Experimental: (§2) Cell cytotoxicity was assessed by measuring LDH release from damaged or dead cells using a Cytotoxicity LDH Assay Kit-WST (Dojindo) following the manufacturer's instructions. Briefly, 5 × 10^3 cells per well were plated in 96-well plates. […] The final DMSO concentration in the medium was 0.1%. The amount of LDH leakage from the cells was determined by measuring the absorbance at 490 nm using a microplate reader (Synergy H4 Hybrid Reader, BioTek). The percentage of cytotoxicity was calculated as follows: [(test sample - low control)/ (high control - low control)] × 100, where low control is the absorbance of the culture medium without any added extract, and high control is the absorbance of the culture medium in which the cells were treated with 1% (v/v) Triton X-100 to achieve 100% LDH release. Each data point is presented as the mean ± s.d. of three independent experiments.

FHC cells = test: LDH assay of cytotoxicity in FHC cells; format: cell-based; details: 48 h
Experimental: as §2

HCT116 xenograft tumors = test: HCT116 CDX model; format: in vivo, BALB/c nude mice; details: 20 or 30 mg/kg intraperitoneally every other day for 16 days
Experimental: All animal studies were performed following federal and institutional guidelines approved by the Institutional Animal Care and Use Committee at Shanghai Jiao-Tong University School of Medicine. To establish the CDXs, HCT116 cells (1 × 10^6) suspended in 100 μL of 1× PBS were injected subcutaneously into the flanks of six-week-old male BALB/c nude mice. To establish the PDXs, primary tumors resected from two independent CRC patients (patient #1 and #2) were collected in the culture medium. The necrotic and supporting tissues were carefully removed using sterilized surgical blades. The gross tumor was cut into fragments (2-3 mm in diameter) and inoculated subcutaneously into the flanks of nude mice. The mice were monitored daily, and caliper measurements began when tumors became visible. The tumor volume was monitored every other day via calipers. The tumor volume was calculated using the following formula: (L × W ^2) / 2, where L and W refer to the tumor diameter along the longitudinal and transverse axes, respectively. When the mean tumor volume was approximately 100 to 250 mm^3, the mice were randomly grouped (n = 6 per group for CDXs, n = 8 per group for PDXs), and treatment was initiated. […] After treatment or if meeting the humane endpoint criteria, the mice were sacrificed by CO2 asphyxiation. The tumors were dissected, imaged, and weighed. […]

[3] = system: adenomas in small intestines and colons of APC^min/+ mice; test: APC^min/+ model of spontaneous CRC; format: in vivo, C57BL/6J-APC^min/+ mice; details: 20 mg/kg intraperitoneal injection every two days for 12 weeks
Experimental: C57BL/6J-APC^min/+ mice were obtained from Jackson Laboratory. […] The mice were sacrificed in the twentieth week. Tumor numbers were calculated, and tumors were imaged after longitudinal dissection of the small intestine and colon. Then, the small intestines and colons were sectioned and stained for immunohistochemistry.

SIRT6 = SIRT6 (Homo sapiens, UniProt Q8N6T7); test: SIRT6 deacetylation on nucleosome substrates (western blot); format: biochemical; parameters: WT (wild-type) full-length human SIRT6 was inserted into the pET28a-LIC vector; made in house; host or cells: Escherichia coli BL21 (DE3); details: natural nucleosomes, dose-dependent
SIRT6, sequence (Q8N6T7 whole entry): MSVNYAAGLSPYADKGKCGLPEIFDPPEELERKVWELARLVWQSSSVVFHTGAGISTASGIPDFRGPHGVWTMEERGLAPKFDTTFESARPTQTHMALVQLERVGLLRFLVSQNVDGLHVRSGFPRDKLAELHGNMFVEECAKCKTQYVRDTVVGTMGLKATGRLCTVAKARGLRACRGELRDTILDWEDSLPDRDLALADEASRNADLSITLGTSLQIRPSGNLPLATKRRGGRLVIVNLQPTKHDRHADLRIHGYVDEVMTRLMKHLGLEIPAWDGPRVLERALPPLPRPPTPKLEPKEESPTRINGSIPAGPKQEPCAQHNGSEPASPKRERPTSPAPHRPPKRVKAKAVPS
Experimental: In vitro deacetylation reactions on nucleosome substrates were performed as previously reported, [32]. Briefly, 5 μg of mononucleosomes purified from HeLa cells with a nucleosome preparation kit (Active Motif) and 0.2 μg of purified WT SIRT6 were incubated in 40 μL of HDAC buffer (50 mM Tris-HCl [pH 8.0], 2 mM NAD^+, and 150 mM NaCl) for 80 min at 30 °C. […] The reaction mixture was analyzed by western blotting.

[4] = 30 mg/kg, IP 30 mg/mL, mean of five mice

Cc1cc(F)c(Br)cc1NS(=O)(=O)c1ccc(NS(=O)(=O)c2cc(Cl)cc(Cl)c2)cc1CN1CCOC[C@H]1C [MDL-811]
AUC(0-inf) [1, 4]: 19700 ng·h/mL | half-life [1, 4]: 1.38 h | AUC0-t ([1]; 30 mg/kg, IP 30 mg/mL, mean of five mice, read-out: AUC0-t): 19600 ng·h/mL | Cmax ([1]; 30 mg/kg, IP 30 mg/mL, mean of five mice, read-out: Cmax): 5330 ng/mL | MRT ([1]; 30 mg/kg, IP 30 mg/mL, mean of five mice, read-out: MRT): 2.63 h | tmax ([1]; 30 mg/kg, IP 30 mg/mL, mean of five mice, read-out: tmax): 0.5 h | bioavailability ([1]; intraperitoneal, IP 30 mg/mL vs IV, ratio of AUC normalized to dose, read-out: F (bioavailability)): 93% | cell cycle phase distribution, G2/M (HCT116; HCT116, 5 µM): 17.9 ± 4.0 | cell cycle phase distribution, S (HCT116; HCT116, 5 µM): 19.0 ± 2.3 | cell cycle phase distribution, G0/G1 (HCT116; HCT116, 5 µM): 63.2 ± 2.1 | cell cycle phase distribution, G2/M (HCT116; HCT116, 10 µM): 14.1 ± 3.8 | cell cycle phase distribution, S (HCT116; HCT116, 10 µM): 19.0 ± 4.3 | cell cycle phase distribution, G0/G1 (HCT116; HCT116, 10 µM): 66.9 ± 1.4 | cell cycle phase distribution, G2/M (HT29; HT29, 5 µM): 20.2 ± 4.2 | cell cycle phase distribution, S (HT29; HT29, 5 µM): 25.3 ± 4.5 | cell cycle phase distribution, G0/G1 (HT29; HT29, 5 µM): 54.5 ± 4.1 | cell cycle phase distribution, G2/M (HT29; HT29, 10 µM): 20.5 ± 3.7 | cell cycle phase distribution, S (HT29; HT29, 10 µM): 19.6 ± 2.3 | cell cycle phase distribution, G0/G1 (HT29; HT29, 10 µM): 59.9 ± 2.7 | cell cycle phase distribution, G2/M (SW480; SW480, 5 µM): 10.8 ± 4.4 | cell cycle phase distribution, S (SW480; SW480, 5 µM): 26.3 ± 5.1 | cell cycle phase distribution, G0/G1 (SW480; SW480, 5 µM): 62.9 ± 6.0 | cell cycle phase distribution, G2/M (SW480; SW480, 10 µM): 11.9 ± 6.4 | cell cycle phase distribution, S (SW480; SW480, 10 µM): 18.1 ± 4.9 | cell cycle phase distribution, G0/G1 (SW480; SW480, 10 µM): 70.0 ± 3.8 | cytotoxicity (LDH release) [2]: minimal cytotoxic effect | cytotoxicity (LDH release) (FHC cells): low cytotoxic effect | tumor growth (HCT116 xenograft tumors): strongly suppressed tumor growth in a dose-dependent manner | number and size of adenomas [3]: significantly reduced the number and size of adenomas | deacetylation of H3K9Ac, H3K18Ac, and H3K56Ac (SIRT6): significantly enhanced the deacetylation of SIRT6 (H3K9Ac, H3K18Ac, and H3K56Ac)
